Experimental data from patent EP1743641A1, “Use of substituted pyrazoline compounds for the treatment of food disorders, including obesity or metabolic syndrome in patients with developed diabetes” (LABORATORIOS DEL DR. ESTEVE, S.A., priority 2005, dated 2007).

Columns and labels:
CB1-Receptor = target: T1, CB1-Receptor (Homo sapiens, UniProt P21554); assay: In-vitro determination of affinity to CB1 receptor (radioligand [3H]-CP55940); assay type: binding
T1 construct: purchased Receptor Biology, Inc
Procedure: (§1) The in-vitro determination of the affinity of the substituted pyrazoline compounds to CB1/CB2-Rezeptors is carried out as described in the publication of Ruth A. Ross, Heather C. Brockie et al., "Agonist-inverse agonist characterization at CB1 and CB2 cannabinoid receptors of L-759633, L759656 and AM630", British Journal of Pharmacology, 126, 665-672, (1999), whereby the transfected human CB1 and CB2 receptors of Receptor Biology, Inc. are used. The radioligand used for both receptors is [^3H]-CP55940. The respective parts of the description is hereby incorporated by reference and forms part of the present disclosure.
The affinity of the inventive substituted pyrazoline compounds to CB1/CB2 receptors was determined as described above.

cannabinoid receptors [1] = assay: Mouse tetrad model, agonistic effect; assay type: in vivo, Male NMRI mice; set-up: key to Agonistic effect D: Sedation: % of sedation = arithmetic mean score/3 × 100; conditions: 5 mg/kg i.v., mice
From the text: (§2) Substances with affinity for cannabinoid receptors are known to produce a wide range of pharmacological effects. It is also known that intravenous administration of a substance with affinity for cannabinoid receptors in mice produces analgesia , hypothermia, sedation and catalepsy. Individually, none of these effects can be considered as proof that a tested substance has affinity for cannabinoid-receptors, since all of these effects are common for various classes of centrally active agents. However, substances, which show all of these effects, i.e. substances that are active in this so-called tetrad model are considered to have affinity for the cannabinoid receptors. It has further been shown that cannabinoid receptor antagonists are higly effective in blocking the effects of a cannabinoid agonist in the mouse tetrad model.
(§3) The tetrad model is described, for example, in the publication of A. C. Howlett et al, International Union of Pharmacology XXVII. Classification of Cannabinoid e cept σs, Pharmacol Rev 54, 161-202 , 2002 and David R. Compton et al., "In-vivo Characterization of a Specific Cannabinoid Receptor Antagonist (SR141716A) :Inhibition of Tetrahydrocannbinol- induced Responses and Apparent Agonist Activity", J. Pharmacol. Exp. Ther. 277, 2, 586-594, 1996. The corresponding parts of the description are hereby incorporated by reference.
(§4) Male NMRI mice with a weight of 20-30 g (Harlan, Barcelona, Spain) are used in all of the following experiments.
(§5) Before testing in the behavioral procedures given below, mice are acclimatized to the experimental setting. Pre-Treatment control values are determined for analgesia hot plate latency (in seconds), rectal temperature, sedation and catalepsy.
(§6) In order to determine the agonistic activty of the substance to be tested, the mice are injected intravenously with the substance to be tested or the vehicle alone. 15 minutes after injection, latency in hot plate analgesia is measured. Rectal temperature, sedation and catalepsy are measured 20 minutes after injection.
(§7) The hot plate analgesia is determined according to the method described in Woolfe D. et al. "The evaluation of analgesic action of pethidine hydrochloride (Demerol)", J. Pharmacol. Exp. Ther. 80, 300-307,1944. The respective description is hereby incorporated by reference and forms part of the present disclosure.
(§8) The mice are placed on a hot plate (Harvard Analgesimeter) at 55 ± 0.5 °C until they show a painful sensation by licking their paws or jumping and the time for these sensations to occur is recorded. This reading is considered the basal value (B). The maximum time limit the mice are allowed to remain on the hot plate in absence of any painful response is 40 seconds in order to prevent skin damage. This period is called the cut-off time (PC).
(§9) Fifteen minuts after the administration of the substance to be tested, the mice are again placed on the hot plate and the afore described procedure is repeated. This period is called the post-treatment reading (PT).
(§10) %MPEof Analgesia = (PT−B)/(PC−B) × 100 [formula]
(§11) Sedation and ataxia is determined according to the method described in Desmet L. K. C. et al. "Anticonvulsive properties of Cinarizine and Flunarizine in Rats and Mice", Arzneim. -Forsch. (Frug Res) 25, 9, 1975. The respective description is hereby incorporated by reference and forms part of the present disclosure.
(§12) The chosen scoring system is
%of sedation = arithmetic mean/3 × 100 [formula]
Hypothermia is determined according to the method described in David R. Compton et al. "In-vivo Characterization of a Specific Cannabinoid Receptor Antagonist (SR141716A) Inhibition of Tetrahydrocannbinol- induced Responses and Apparent Agonist Activity", J. Pharmacol Exp Ther. 277 , 2, 586-594, 1996. The respective description is hereby incorporated by reference and forms part of the present disclosure. […]

CB2-Receptor = target: T2, CB2-Receptor (Homo sapiens, UniProt P34972); assay: In-vitro determination of affinity to CB2 receptor (radioligand [3H]-CP55940); assay type: binding
T2 construct: purchased Receptor Biology, Inc
Procedure: as §1, with “disclosure. The affinity of the inventive substituted pyrazoline compounds to CB1/CB2 receptors was determined as described above.” for “disclosure.”

cannabinoid receptors [2] = assay: Mouse tetrad model, antagonistic effect against Win 55212-2; assay type: in vivo, Male NMRI mice; set-up: unit not given here; conditions: 5 mg/kg i.v. prior to Win 55212-2 in a dose of 1,25mg/kg i.v., mice
From the text: as §2, §3, §4, §5, §6
In order to determine the antagonistic activity the identical procedure is used as for the determination of the agonistic effects, but with the difference that the substance to be evaluated for its antagonistic activity is injectected 5 minutes before the intravenous injection of 1.25 mg/kg Win-55,212 a known cannabinoid-receptor agonist.
as §7, §8, §9, §10, §11, §12
%of sedation = arithmetic mean/3 × 100 [formula] […]

T2 sequence (P34972 whole entry): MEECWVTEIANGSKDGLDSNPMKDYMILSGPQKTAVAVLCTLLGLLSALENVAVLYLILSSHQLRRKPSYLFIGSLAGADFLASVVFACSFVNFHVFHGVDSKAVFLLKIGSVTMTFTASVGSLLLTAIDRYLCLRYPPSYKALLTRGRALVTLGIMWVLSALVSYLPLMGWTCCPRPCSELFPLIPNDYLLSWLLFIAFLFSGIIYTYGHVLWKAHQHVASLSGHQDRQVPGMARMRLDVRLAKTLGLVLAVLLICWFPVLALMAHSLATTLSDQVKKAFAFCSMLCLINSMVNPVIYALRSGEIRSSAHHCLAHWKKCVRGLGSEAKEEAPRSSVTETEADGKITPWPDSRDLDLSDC
T1 sequence (P21554 whole entry): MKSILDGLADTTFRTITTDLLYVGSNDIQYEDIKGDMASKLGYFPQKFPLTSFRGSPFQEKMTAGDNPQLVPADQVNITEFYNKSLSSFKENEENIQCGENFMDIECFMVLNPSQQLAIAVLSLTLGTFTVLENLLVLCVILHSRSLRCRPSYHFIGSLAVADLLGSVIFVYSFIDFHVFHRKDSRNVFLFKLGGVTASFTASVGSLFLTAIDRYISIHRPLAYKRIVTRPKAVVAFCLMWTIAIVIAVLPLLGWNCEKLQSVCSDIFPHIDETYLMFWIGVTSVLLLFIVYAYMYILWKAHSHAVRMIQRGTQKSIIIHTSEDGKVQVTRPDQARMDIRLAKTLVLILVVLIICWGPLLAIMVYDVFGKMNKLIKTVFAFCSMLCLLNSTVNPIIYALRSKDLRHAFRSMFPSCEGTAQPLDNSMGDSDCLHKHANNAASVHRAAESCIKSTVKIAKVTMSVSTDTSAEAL

Compound	Ki (CB1-Receptor)	Agonistic effect A: Hot-Plate test (cannabinoid receptors [1])	Agonistic effect B: Hypothermia (cannabinoid receptors [1])	Agonistic effect C: Catalepsy (cannabinoid receptors [1])	Agonistic effect D: Sedation (cannabinoid receptors [1])	Ki (CB2-Receptor)	Antagonistic Effect A: Hot-Plate test (cannabinoid receptors [2])	Antagonistic Effect B: Hypothermia (cannabinoid receptors [2])	Antagonistic Effect C: Catalepsy (cannabinoid receptors [2])	Antagonistic Effect D: Sedation (cannabinoid receptors [2])
O=C(NN1CCCCC1)C1=NN(c2ccc(Cl)cc2Cl)C(c2ccc(Cl)cc2)C1 (stereo not shown) [Example 1, N-piperidinyl-5-(4-chlorophenyl)-1-(2,4-dichlorophenyl)-4,5-dihydro-1H-pyrazole-3-carboxamide]	< 25 nM	0	0	0	0	> 1000 nM	74	100	100	100
O=C(C1=NN(c2ccc(Cl)cc2Cl)C(c2ccc(Cl)cc2)C1)N1CCCCC1 (stereo not shown) [Example 5, [5-(4-Chloro-phenyl)-1-(2,4-dichloro-phenyl)-4,5-dihydro-1H-pyrazol-3-yl]-piperidin-1-yl-methanone]	–	0	50	0	0	~1000 nM	50	40	20	20
